Laboratory results taken from patent US20240279230A1, “CRYSTALLINE FORMS OF A HER2 INHIBITOR” (Boehringer Ingelheim International GmbH, priority 2022, published 2024).
“Also recorded” adds a separate entry of the source.

What was measured:
Format in all cases: physicochemical
[1] = Dynamic Vapor Sorption (DVS) sorption isotherms, hygroscopic behaviour; details: for Hygroscopicity: DVS classification; for Δm (0-80%), moisture absorbed at 80% RH / Δm (0-90%), maximum water uptake: DVS, 25.0 ±1.0° C.; for Δm (0-90%), maximum water uptake: up to 90% RH; for Hysteresis: between sorption and desorption curves
Description: The methodology for this can be as follows. The mass of the solids is monitored as the relative humidity (RH) was deliberately changed. The RH is cycled twice from 0% to 90% to 0% in 10% steps. The temperature during measurement is kept constantly at (25.0 ±1.0° C.) Each step is held until mass stability was achieved. A camera inside the instrument captured an image at the conclusion of each stage, allowing for the observation of any visual changes in the solid form during the analysis.

[2] = Thermogravimetric Analysis (TGA); details: 20° C./min
Description: The methodology for this can be as follows. Solid compounds (˜5 mg) are placed in an aluminium pan and sealed. The instrument used for the analysis is a TA Instruments TGA 550. The same sample lots from DSC testing are used for TGA testing. Processing is completed using TRIOS software.

[3] = Polymorphic stability of form III and form IV under stress storage, PXRD; details: 21 days;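 note: open storage at 90 °C with 3% RH or 78% RH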
Description: A Bruker D2 Phaser X-Ray Diffractometer (XRD, EQ-SSRD-XRD-01) can be used for characterizing the samples. Raw results are evaluated using DIFFRAC.EVA (Bruker, V5.0) software. The Kα2 contribution was stripped, and a peak search was performed using peak search parameters (width 0.302 and threshold 1.0).
A test sample (approximately 0.3 g) is representatively subsampled into an agate-type mortar and pestle. Sample is ground for approximately one minute to achieve a fine homogenous powder. Sample is then transferred into a stainless-steel sample holder fitted with a zero-diffraction plate (ZDP). The sample holder is then levelled off with a glass slide to create a flat sample surface level with the sample holder.

[4] = Chemical stability of solid state forms under temperature/humidity stress, related substances by HPLC at 252 nm; set-up: Impurity I / Impurity A / Impurity B / Impurity C / Impurity D / Impurity E / Impurity F / Impurity G / Impurity H: unit not given here
Text: To do so, control samples are stored refrigerated in the presence of desiccant for the duration of the study and measured simultaneously with stressed samples by HPLC at a wavelength of 252 nm.

[5] = Control 1, stored refrigerated with desiccant
[6] = Control 2, stored refrigerated with desiccant
[7] = Control 3, stored refrigerated with desiccant

## C=CC(=O)NC1CCN(c2ncc3ncnc(Nc4ccc(Oc5ccc6c(c5)ncn6C)c(C)c4)c3n2)CC1 [Form III, N-{1-[8-({3-methyl-4-[(1-methyl-1H-1,3-benzodiazol-5-yl)oxy]phenyl}amino)-[1,3]diazino[5,4-d]pyrimidin-2-yl]piperidin-4-yl}prop-2-enamide]
[1]; DVS camera images
  Change in visual appearance during the humidity cycles: No change in the visual appearance
[1]
  Hygroscopicity: slightly hygroscopic
  Δm (0-80%), moisture absorbed at 80% RH: 1.2 wt %
  Δm (0-90%), maximum water uptake: 1.7 wt %
  Hysteresis: no
[1]; listed as form III
  Hygroscopicity: slightly hygroscopic
  Δm (0-80%), moisture absorbed at 80% RH: 1.2 wt %
  Δm (0-90%), maximum water uptake: 1.7 wt %
  Hysteresis: lack of hysteresis
[1]; RH cycled twice 0% to 90% to 0%
  Phase change during DVS experiment: no indication of irreversible phase conversion or hydrate formation; also recorded: no irreversible phase changes
[2]; Decomposition
  TGA change in mass: 60.862%
  TGA onset: 420.47 °C
[2]; Small mass loss event
  TGA change in mass: 1.129%
  TGA end: 240.02 °C
  TGA onset: 231.13 °C
[2]; Small mass loss event, listed as form III
  TGA change in mass: around 1%
[3]; open storage 90° C./3% RH
  Polymorphic stability by PXRD: stable and conformed to form III reference standard
[3]; open storage 90° C./3% RH, listed as form III
  Polymorphic stability by PXRD: neither form underwent phase changes
[3]; open storage 90° C./78% RH
  Polymorphic stability by PXRD: stable and conformed to form III reference standard
[3]; open storage 90° C./78% RH, listed as form III
  Polymorphic stability by PXRD: neither form underwent phase changes
[4]; 60-90° C., 3-79% RH, up to 21 days
  Color change after stressing: No color changes
[4]; 60° C./75% RH, 21 days
  Impurity A: 0.067
  Impurity B: 0.012
  Impurity C: 0.023
  Impurity D: 0.134
  Impurity E: 0.057
  Impurity F: 0
  Impurity G: 0.019
  Impurity H: 0.140
  Impurity I: 0.014
[4]; 70° C./62% RH, 21 days
  Impurity A: 0.064
  Impurity B: 0.012
  Impurity C: 0.024
  Impurity D: 0.119
  Impurity E: 0.059
  Impurity F: 0.006
  Impurity G: 0.019
  Impurity H: 0.139
  Impurity I: 0.015
[4]; 75° C./41% RH, 21 days
  Impurity A: 0.066
  Impurity B: 0.011
  Impurity C: 0.025
  Impurity D: 0.118
  Impurity E: 0.062
  Impurity F: 0.009
  Impurity G: 0.019
  Impurity H: 0.136
  Impurity I: 0.010
[4]; 75° C./79% RH, 17 days
  Impurity A: 0.066
  Impurity B: 0.012
  Impurity C: 0.031
  Impurity D: 0.106
  Impurity E: 0.074
  Impurity F: 0
  Impurity G: 0.005
  Impurity H: 0.135
  Impurity I: 0.015
[4]; 80° C./11% RH, 21 days
  Impurity A: 0.066
  Impurity B: 0.011
  Impurity C: 0.025
  Impurity D: 0.123
  Impurity E: 0.054
  Impurity F: 0.007
  Impurity G: 0.024
  Impurity H: 0.141
  Impurity I: 0.015
[4]; 80° C./61% RH, 17 days
  Impurity A: 0.052
  Impurity B: 0.013
  Impurity C: 0.024
  Impurity D: 0.096
  Impurity E: 0.060
  Impurity F: 0.009
  Impurity G: 0.020
  Impurity H: 0.137
  Impurity I: 0.015
[4]; 90° C./3% RH, 21 days
  Impurity A: 0.064
  Impurity B: 0.012
  Impurity C: 0.033
  Impurity D: 0.087
  Impurity E: 0.073
  Impurity F: 0
  Impurity G: 0.007
  Impurity H: 0.140
  Impurity I: 0.016
[4]; 90° C./41% RH, 10 days
  Impurity A: 0.066
  Impurity B: 0.013
  Impurity C: 0.025
  Impurity D: 0.109
  Impurity E: 0.060
  Impurity F: 0
  Impurity G: 0.022
  Impurity H: 0.138
  Impurity I: 0.013
[4]; 90° C./78% RH, 21 days
  Impurity A: 0.065
  Impurity B: 0.011
  Impurity C: 0.023
  Impurity D: 0.112
  Impurity E: 0.057
  Impurity F: 0.006
  Impurity G: 0.021
  Impurity H: 0.133
  Impurity I: 0.014
[4]; [5]
  Impurity A: 0.059
  Impurity B: 0.012
  Impurity C: 0.026
  Impurity D: 0.127
  Impurity E: 0.049
  Impurity F: 0.008
  Impurity G: 0.016
  Impurity H: 0.139
  Impurity I: 0.014
[4]; [6]
  Impurity A: 0.051
  Impurity B: 0.010
  Impurity C: 0.023
  Impurity D: 0.097
  Impurity E: 0.057
  Impurity F: 0.006
  Impurity G: 0.019
  Impurity H: 0.136
  Impurity I: 0.016
[4]; [7]
  Impurity A: 0.069
  Impurity B: 0.010
  Impurity C: 0.024
  Impurity D: 0.143
  Impurity E: 0.051
  Impurity F: 0.007
  Impurity G: 0.019
  Impurity H: 0.139
  Impurity I: 0.016
[4]; accelerated stress conditions, up to 21 days at 90° C./78% RH
  Increase in related substances: no significant increase in any related substance
[4]; up to 21 days at 90° C./78% RH
  Chemical stability in the solid state: chemically very stable
